Reference: patent US10023613B2, “Peptidomimetic macrocycles as modulators of MCL-1” (AILERON Therapeutics, Inc., priority 2015, dated 2018)
Bridge positions count the residues as written; N and C are the ends. Square brackets hold non-standard residues; d marks the D form. Peptide text beside a SMILES is read from it. R8 = C=CCCCCCC[C@@](C)(N)C(=O)O; S5 = C=CCCC[C@](C)(N)C(=O)O

Test system: Human Raji cells
Type: cell-based
Details: Raji Cell Viability, 48 h, 5% serum
Description: BIM peptidomimetic macrocycles were tested for cell killing at various concentrations. Human Raji cells were treated with increasing doses of peptidomimetic macrocycles corresponding to SEQ ID NO. 763 (FIGS. 1 and 2), 1143 (FIGS. 1-3), and 1621 (FIGS. 3 and 4). An % Viable cells was calculated for each dose of the peptidomimetic macrocycle from a non-linear fit of response vs dose (GraphPad Prism). […]

Compound: CC[C@H](C)[C@H](NC(C)=O)C(=O)N[C@@H](Cc1c[nH]c2ccccc12)C(=O)N[C@H](C(=O)N[C@@H](C)C(=O)N[C@@H](CCC(N)=O)C(=O)N[C@@H](C)C(=O)N[C@@H](CC(C)C)C(=O)N[C@@H](CCCNC(=N)N)C(=O)N[C@]1(C)CCCCCCC=CCCC[C@@](C)(C(=O)N[C@@H](Cc2ccc(O)cc2)C(=O)N[C@@H](Cc2ccc(O)cc2)C(=O)N[C@@H](C)C(N)=O)NC(=O)[C@H](CC(N)=O)NC(=O)[C@H](Cc2ccccc2)NC(=O)[C@H](CCC(=O)O)NC(=O)[C@H](CC(=O)O)NC(=O)CNC(=O)[C@H]([C@@H](C)CC)NC1=O)[C@@H](C)CC [compound 1647] (Ac-IWIAQALR[R8]IGDEFN[S5]YYA-NH2; staple 9-16)
- EC50: > 40 µM
